In patent US20190351012A1, “TARGETING OF INTERFERON-STIMULATED GENE EXPRESSION TO TREAT INTERFERONOPATHIES” (New York University, priority 2018, published 2019):
Entries after “also recorded” stand apart in the source; their conditions may differ.

Columns and labels:
[1] = tested on: H3K4me3 at ISG54, ISG56 and 6-16 promoters; test: ChIP for H3K4me3 at ISG promoters in 2fTGH cells; assay type: cell-based, human; settings: co-treatment with IFN-α
Experimental: FIG. 3. […] (A) 2fTGH cells were either left untreated or treated with IFN-α in the absence or presence of TSA for the indicated time (min). ChIP assays were performed with antibodies against Pol II and recovered ISG56 promoter sequences were quantified by real-time PCR relative to input and represented as fold induction relative to untreated cells. (B) As in A, except that antibodies against phosphorylated Pol II at serine-5 in the CTD were used for immunoprecipitation, following 60 min IFN-α treatments. Recovered ISG54, ISG56 and ISG15 promoter sequences were quantified by real-time PCR relative to input and represented as fold induction relative to untreated cells. (C) As in A, except that cells were treated with IFN-α for 60 min and proximal, middle and distal fragments along the ISG54 gene (left panel) and ISG56 gene (right panel) were assayed. (D) As in A, except that antibodies against trimethylated lysine-4 on histone H3 were used. Promoter regions of ISG54, ISG56 and 6-16 genes were quantified by real-time PCR and reported as fold over the signal detected with a non-specific antibody.
Chromatin immunoprecipitation was performed as follows. […] Immunoprecipitated DNA sequences were recovered by alcohol precipitation and quantified by real-time PCR compared with input genomic DNA. […]

BRD4 = test: Nuclear BRD4 distribution (soluble versus chromatin-bound) by differential salt extraction and western blot in HeLa cells; assay type: cell-based, human; settings: western blot
Experimental: FIG. 5. BRD4 is required for ISG transcription. (A) HeLa cells were either left untreated or treated with IFN-α for 1 h in presence or absence of JQ-1 or HMBA. Using primers spanning intron-exon junctions, nuclear pre-mRNA for ISG54 and γ-actin were quantified by real-time RT-PCR and normalized to GAPDH mRNA. (B) Control and BRD4 KD cells were either left untreated or treated with IFN-α. ISG56 and BRD4 mRNA were quantified using real-time RT-PCR and normalized to GAPDH mRNA abundance. (C) HEK293T cells were transfected with pcDNA3 (Ctl) or Brd4 expression constructs along with a luciferase reporter driven by the ISG54 promoter. 24 h after transfection, cells were either left untreated or treated with IFN-α in the absence or presence of TSA before being assayed for luciferase activity (left panel). HEK293T cells were transfected with pcDNA3 (Ctl) or Brd4 expression constructs along with a luciferase reporter driven by the constitutive RSV promoter and assayed for luciferase activity after 36 h (right panel). (D) Hela cells were either left untreated or treated with IFN-α for 2 h in presence or absence of TSA or Anacardic acid (AA). Nuclear proteins were extracted as a soluble fraction and a chromatin bound fraction and analyzed by western blotting using anti-BRD4, H4-AcK5 and actin antibodies. […] (F) ChIP assays were performed with antibodies against BRD4 and recovered ISG56, Mx1 and IRF9 TSS spanning sequences were quantified by real-time PCR, normalized to input, and represented as fold enrichment over the untreated sample.
BRD4 is recruited to active promoters along with polymerase, and it associates with elongating polymerase to affect transcriptional elongation. […] Cells were treated with IFN in the presence or absence of TSA, and nuclear BRD4 was quantified in soluble versus chromatin-bound fractions by differential salt extraction (FIG. 5D). Most BRD4 was detected in the soluble nucleoplasm fraction in untreated or IFN-treated cells (FIG. 5D, compare lanes 1 and 2 with 5 and 6). […]
Nuclear extracts were prepared and analyzed by immunoblotting as follows. […]

In the case of CC(/C=C/C(=O)NO)=C\[C@@H](C)C(=O)c1ccc(N(C)C)cc1 [TSA, Trichostatin A], the “level of H3K4me3 on ISG promoters” value [1] was “neither IFN stimulation nor TSA co-treatment significantly affected”, the “soluble nuclear BRD4” value (BRD4; IFN-α 2 h) was “undetectable; also recorded: depletion” and the “histone acetylation (acetylated H4K5)” value (BRD4) was “large increase”.
